Data: article PMC3664642, “A Peptide against Soluble Guanylyl Cyclase α1: A New Approach to Treating Prostate Cancer” (PLoS ONE, 2013)
“Also recorded” adds a separate entry of the source. Where no end group is shown, it is not given here.

Tests used:
CWR-22Rv1 cells = assay: Proliferation/cytotoxicity, castration-resistant CWR-22Rv1 cells (MTT); type: cell-based; settings: different concentrations; Fig. 3C; averages of three independent experiments; P<0.03 vs Vehicle
Procedure: LNCaP, C81, PC-3 and Cos cells were grown as previously described. CWR-22Rv1 cells were cultured in RMPI-1640 medium with 10% FBS and 50 µg/ml Gentamicin (Gibco). Control siRNA, sGCα1 siRNA and AKT siRNA (Dharmacon) at 50 nM final concentration was transfected into cells using Lipofectamine siMAX (Invitrogen).
For proliferation, cells were grown in medium containing 2% FBS extracted with dextran-coated charcoal (DCC). 48 hours later, ethanol or 1 nM R1881 was added to the cells followed by peptide treatment. The MTT assay (Sigma) was used as before to determine cell number. For apoptosis, 5000 cells were seeded in 96-well plates and treated with Vehicle (DMSO), Peptide A-8R (25 µM), Etoposide (50 µM) (Sigma) at different time points. The Caspase (3/7) activity was measured using Apo-ONE Homogeneous Caspase-3/7 assay kit (Promega). PARP cleavage was also used to measure apoptosis, and is described below.
Vehicle or different concentrations of Peptide A-8R or C-8R, as shown, was added to (A) hormone-dependent LNCaP cells grown in 2% serum without or with 1 nM R1881, (C) castration-resistant C81 or CWR-22Rv1 cells, or (E) sGCα1-deficient PC-3 or Cos cells. Cell number was measured after various days of incubation. Data points represent averages of three independent experiments plus standard deviations. […]

AKT = assay: Western blot of AKT in xenograft tumors; type: in vivo; settings: mouse xenograft tumors; Fig. S4B
Procedure: Western blotting was performed as described using primary antibodies against sGCα1 (Cayman Chemical), pan-Akt (Cell Signaling Technology), phospho-AKT (S473, T308) (Cell Signaling Technology), phospho-PDK1 (Cell Signaling Technology), phospho-GSK-3β (Cell Signaling Technology), PARP (Cell Signaling Technology), and β-Actin (Abcam).
2×10^6 C81 cells in 50 µL of growth medium was mixed with 50 µL Matrigel (BD Biosciences) and injected into both flanks of 4–6-week old SCID male mice. When tumor sizes reached 200 mm^3, 50 µL of Peptide A-8R (40 mg Peptide A-8R/Kg of animal) or Vehicle (DMSO) was directly injected into the tumors every other day. Injections were stopped after 5 times and tumors were measured every 3 days. Mice were euthanized after 3 weeks and tumors were excised. All procedures were approved by the University of Toledo Division of Lab Animal Recourses (DLAR). Protein extracts were prepared by boiling the tumor tissue in 3× SDS buffer, and evaluated by SDS-PAGE gel.
Supplementary file pone.0064189.s004.tif: Figure S4 Peptide A-mediated down-regulation of AKT is not involved in its cytotoxicity to prostate cancer cells. […] Cell number was measured after 0–6 days of incubation. […]

DNA damage in C81 cells = assay: Comet assay (DNA damage); type: cell-based; settings: C81, 1 hr, Fig. 4C
Procedure: C81 cells were treated with Peptide A-8R for 1 hour, following a 2-hour pretreatment with 5 mM NAC or Vehicle, and trypsinized, and mixed with Comet LM-Agarose (CometAssay, […]) and transferred to slides. Electrophoresis and Sybr-Green staining was carried out according to manufacturer’s protocol.
Figure 4 Peptide A-8R kills prostate cancer cells by mediating ROS generation. (A) C81 cells were treated with Vehicle or different µMolar concentrations of Peptide A-8R and without or with 0–5 mM NAC and monitored for ROS generation after 0–30 min as measured by fluorescence intensity (FI). Bar graphs represent averages of three independent experiments plus standard deviations. Note that asterisks on bar graphs found with NAC are compared to equivalent data without NAC. (B) C81 cells were treated with Vehicle or different concentrations of Peptide A-8R, as shown, and 0–5 mM NAC, as shown, and monitored for cell number after 0–6 days of incubation as measured by MTT assay. Data points represent averages of three independent experiments plus standard deviations. Asterisks indicate statistical significance (P<0.04). (C) C81 cells were treated with Vehicle or different concentrations of Peptide A-8R, as shown, and with or without 5 mM NAC, as shown, and monitored DNA damage after 1 hr incubation as measured by Comet assay.

Substance: Ac-TFCKAFPFHIIRRRRRRRR [Peptide A-8R]
- suppression of growth of CWR-22Rv1 cells (CWR-22Rv1 cells): also effective on another hormone-refractory prostate cancer cell line, CWR-22Rv1 cells
- effect on AKT protein level in tumors (AKT): same negative effect on AKT protein levels; also recorded: significantly reduces AKT protein levels
- DNA damage (Comet) (DNA damage in C81 cells; 10 µM): induced weakly
- DNA damage (Comet) (DNA damage in C81 cells; 25 µM): much more strongly
- DNA damage (Comet) (DNA damage in C81 cells; 50 µM): does not elicit a Comet signal
